Data set [1] concerns septic rats. The data set can be described thus: Blood pressure and heart rate in septic rats. As to conditions: chronic treatment. Here is the method:
(§1) Studies were conducted to determine if manipulation of adenosine-mediated events would result in alterations in the TNF-α response in this model. At the time of sepsis induction, rats were treated in one of four ways. One group received only 0.9% normal saline as a vehicle control (No Rx; n=6). […] The third group received the adenosine deaminase inhibitor, erythro-9-(2-hydroxy-3-nonyl)adenine (EHNA; 1 μmole/kg+1 μmole/kg/hr; iv; n=3). A fourth group received the adenosine receptor antagonist 8-sulfophenyltheophylline (SPT; 400 μg/kg/8 hours; n=5).
(§2) Sepsis was induced under pentobarbital anesthesia (50 mg/kg) in each rat by intraperitoneal (ip) injection of 200 mg/kg rat cecal contents mixed as a slurry in 5% dextrose in water (D5W). […] Non-septic controls received an equivalent volume ip injection of D5W. Polyethylene catheters (Intramedic PE-50, Baxter) were inserted into the right internal jugular vein and right carotid artery. The jugular catheter was used for venous access (drug infusions; volume replacement, etc). The carotid catheter was used to obtain arterial blood samples, and to monitor arterial blood pressure and heart rate. […]
(§3) At the time of sepsis induction, rats were treated in one of three ways. […] Serum TNF-α (pg/ml) was determined at 4 and 24 hours after sepsis induction by ELISA.

Data set [2] concerns septic rats. The data set can be described thus: Survival of septic rats to day 3. It is filed as in vivo, rat. As to conditions: pentostatin 5 mg/kg/12 h; 8-SPT 400 μg/kg/8 h; 3 days post-sepsis. How it is done:
as §1, §2, §3

Data set [3] deals with adenosine receptors. The experiment in a line: Regional vascular resistance by radiolabelled microspheres 24 hours after sepsis induction. As to conditions: septic rats. In kind it is in vivo, rat. How it is done: Systemic vascular responses were examined 24 hours after induction of sepsis in the presence or absence of adenosine receptor blockade in septic and non-septic rats using radiolabelled microspheres. For these experiments, the surgical procedure involving vascular access was modified to include a catheter in the left ventricle of the heart (via the carotid artery), and a catheter in the tail artery (Intramedic PE-50, Baxter) to permit reference blood withdrawal and blood pressure monitoring. Regional blood flows were determined using radiolabelled microspheres. The microspheres ([…] New England Nuclear, Boston), labeled with one of four isotopes (^46Sc, ^85Sr, ^95Nb, ^141Ce), were mixed in 0.9% normal saline with 0.01 % Tween-80 added to prevent aggregation. The microspheres were adjusted to provide a minimum of 400 microspheres per tissue sample, and represented approximately 100,000-250,000 spheres per injection. The specific Isotopes and their order of injection were randomized in each experiment. with each injection representing a volume of 0.4 ml/injectate. The microspheres were sonicated for a minimum of 30 minutes, and vortexed vigorously for at least 30 seconds prior to injection. A reference withdrawal sample was taken at 0.33 ml/min from the tail artery catheter using a mechanical pump (Harvard Model 22). The reference withdrawal was started 10 seconds prior to injecting the isotopes, and continued for 150 seconds. […] Wet weights were obtained and all tissues were counted in a gamma spectrophotometer (Beckman 9000). Gamma activity in the injectate vials was counted prior to the experiments. Actual injected amounts for each isotope were calculated by subtracting any isotope counts remaining in the vials, syringes, and catheters used for injection. Cardiac output (CO) was determined by dividing the total injectate counts for any given isotope by the counts in the reference sample and multiplying by the fixed withdrawal rate of the reference sample. The results for cardiac output are expressed as ml/min. Tissue counts attributed to each isotope were determined after subtracting the overlap of energy spectra from higher energy isotopes (Compton back-scatter). Individual tissue blood flows were determined by dividing the counts obtained in the tissue by the reference withdrawal counts and multiplying by the reference withdrawal rate. Tissue blood flows were then normalized to wet weight was calculated by adding the individual tissue blood flows of the stomach, small intestine, cecum, colon, pancreas, hepatic artery and spleen, and dividing by the liver weight. Regional tissue vascular resistances were calculated from regional blood flows and arterial blood pressure, according to the equation: […]

Data set [4] has as its system TNF-α. The data set can be described thus: Serum TNF-α by ELISA in rats with chronic peritoneal sepsis (200 mg/kg cecal slurry ip). It is filed as in vivo, rat. As to conditions: septic rats. Here is the method: as §1
Sepsis was induced under pentobarbital anesthesia (50 mg/kg) in each rat by intraperitoneal (ip) injection of 200 mg/kg rat cecal contents mixed as a slurry in 5% dextrose in water (D5W). […] Non-septic controls received an equivalent volume ip injection of D5W. Polyethylene catheters (Intramedic PE-50, Baxter) were inserted into the right internal jugular vein and right carotid artery. The jugular catheter was used for venous access (drug infusions; volume replacement, etc). The carotid catheter was used to obtain arterial blood samples, and to monitor arterial blood pressure and heart rate. The catheters were secured in their respective vessels, tunneled subcutaneously to exit in the interscapular region, and filled with heparinized saline (50 units/ml 0.9% normal saline). Incisions were closed in layers using 3-0 silk. Rats were allowed to recover from anesthetic and provided food and water ad libitum,
Serum and tissue tumor necrosis factor-α (TNF-α) concentrations were determined by enzyme-linked immunosorbant assay. Samples of serum, liver, and spleen were collected, rapidly weighed, and frozen in liquid nitrogen. On the day of assay, tissues are added to labeled tubes containing lysis buffer (volume=10 ml/gram wt. with 1:10 dilution) and kept on ice. The lysis buffer is 20 mM Tris (pH 7.4) containing […] phenylmethylsulfonylflouride (PMSF), […] leupeptin, 0.7 g/ml pepstatin, and 2.0 g/ml aprotinin to inhibit proteases. Samples were immediately homogenized using five 3 see bursts, washing grinding pistol (3×) between samples with phosphate buffered saline. Samples are then centrifuged for 20 min at 2200 RPM, 4° C. The supernatant was removed and used for TNF-α measurements. Briefly, each microplate well contained 50 μl of assay diluent. To each well, 50 μl of standard, control, or serum/homogenate supernatant sample were added and mixed on an orbital plate shaker. Plates were incubated at room temperature for 2 hours. Each well was then aspirated and washed with wash buffer 4 times. After final aspiration of wash buffer, 100 μl of rat TNF-α conjugate was added to each well. Wells were then covered and incubated for 2 hours at room temperature. At the end of the incubation, the aspiration/wash procedure was repeated 4 times, after which 100 μl of stabilized chromogen solution was added to each well. Next, plates were incubated for 45 minutes at room temperature in a dark area. After this final incubation period, 100 μl stopping solution was added to each well. Optical density of each well at […] was determined within 30 minutes using a Biotek Instruments EL312e microtiter plate reader. Concentrations of TNF-α were calculated from the standard curves.
At the time of sepsis induction, rats were treated in one of three ways. One group received only 0.9% normal saline as a vehicle control (VEH, n=6, where n is the number of rats). […] A third group received the adenosine receptor antagonist, 8-sulfophenyltheo-phylline (SPT; 400 μg/kg/8 h; n=5). Serum TNF-α (pg/ml) was determined at 4 and 24 hours after sepsis induction by ELISA.
Male SD rats (350-400 g) were made septic by IP introduction of a 200 mg/kg cecal slurry. […] TNF-α (pg/ml) was determined at 4 and 24 hours after sepsis induction by ELISA.

In data set [5] the test system is septic rats. The data set can be described thus: Capillary leakage: examination of peritoneal cavity and bowel of septic rats. It is filed as in vivo, rat.
The target in data set [6] is T1, adenosine deaminase (Homo sapiens, UniProt P00813).
T1 sequence (P00813 1-363): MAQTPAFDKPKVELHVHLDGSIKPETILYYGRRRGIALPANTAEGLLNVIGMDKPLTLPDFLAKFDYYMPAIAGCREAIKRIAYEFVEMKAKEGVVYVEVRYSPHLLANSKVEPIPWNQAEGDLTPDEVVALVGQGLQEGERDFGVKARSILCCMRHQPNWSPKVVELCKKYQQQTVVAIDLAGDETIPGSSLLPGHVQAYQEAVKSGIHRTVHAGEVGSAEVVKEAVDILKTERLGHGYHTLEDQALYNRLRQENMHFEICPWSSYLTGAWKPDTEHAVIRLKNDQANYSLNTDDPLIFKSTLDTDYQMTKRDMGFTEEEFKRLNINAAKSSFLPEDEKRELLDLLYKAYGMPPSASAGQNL
As to conditions: FIG. 10 legend; cited from earlier work.

Data set [7] concerns the target T2, xanthine oxidase (Rattus norvegicus, UniProt P22985).
T2 construct: host or cells: isolated perfused rat heart
As to conditions: 10 nM, hypoxic perfused rat hearts; cited from earlier work.

Several values for one entry are separate records, joined by “and”; a condition that tells them apart may be missing. Identical values can stand only once. Entries after “also recorded” stand apart in the source; their conditions may differ.

T2 sequence (P22985 whole entry, the tested form may be a part): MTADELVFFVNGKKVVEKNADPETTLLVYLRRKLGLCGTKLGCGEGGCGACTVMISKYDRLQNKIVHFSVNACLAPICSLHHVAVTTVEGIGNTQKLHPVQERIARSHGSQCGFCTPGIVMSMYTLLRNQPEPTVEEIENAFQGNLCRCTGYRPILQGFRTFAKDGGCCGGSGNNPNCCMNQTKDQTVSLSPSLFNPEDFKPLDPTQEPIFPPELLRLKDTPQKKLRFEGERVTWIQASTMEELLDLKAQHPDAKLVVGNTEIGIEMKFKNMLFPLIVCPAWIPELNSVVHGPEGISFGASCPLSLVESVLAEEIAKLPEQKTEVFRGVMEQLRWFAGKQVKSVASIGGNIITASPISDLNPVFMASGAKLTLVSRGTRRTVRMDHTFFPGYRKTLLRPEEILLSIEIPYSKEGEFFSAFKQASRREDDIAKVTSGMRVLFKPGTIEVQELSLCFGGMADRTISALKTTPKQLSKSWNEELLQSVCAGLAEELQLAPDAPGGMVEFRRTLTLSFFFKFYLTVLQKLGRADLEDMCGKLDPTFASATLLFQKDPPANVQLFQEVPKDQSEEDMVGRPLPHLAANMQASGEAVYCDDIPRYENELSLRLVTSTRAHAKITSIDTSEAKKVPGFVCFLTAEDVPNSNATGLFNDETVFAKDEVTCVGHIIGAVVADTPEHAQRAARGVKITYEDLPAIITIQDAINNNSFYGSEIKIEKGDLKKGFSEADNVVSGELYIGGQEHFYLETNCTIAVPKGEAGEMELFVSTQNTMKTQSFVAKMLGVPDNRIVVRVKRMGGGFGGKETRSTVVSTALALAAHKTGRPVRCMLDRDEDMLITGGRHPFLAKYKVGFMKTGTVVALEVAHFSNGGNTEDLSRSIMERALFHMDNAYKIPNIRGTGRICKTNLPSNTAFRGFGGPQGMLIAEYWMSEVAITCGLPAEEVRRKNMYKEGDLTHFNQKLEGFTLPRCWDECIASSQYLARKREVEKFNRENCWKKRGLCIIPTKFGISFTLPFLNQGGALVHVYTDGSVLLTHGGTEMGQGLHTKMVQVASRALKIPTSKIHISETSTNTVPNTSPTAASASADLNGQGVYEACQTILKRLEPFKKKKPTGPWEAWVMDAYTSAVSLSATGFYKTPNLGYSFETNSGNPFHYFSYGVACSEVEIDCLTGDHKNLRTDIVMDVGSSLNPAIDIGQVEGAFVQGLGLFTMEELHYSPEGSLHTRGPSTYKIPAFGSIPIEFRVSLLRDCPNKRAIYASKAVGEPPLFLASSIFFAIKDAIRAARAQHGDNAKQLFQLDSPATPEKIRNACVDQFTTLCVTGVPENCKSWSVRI

With 8-sulfophenyltheophylline [8-SPT], the “Blood pressures or heart rates versus saline-treated septic rats” value in data set [1] is “neither the adenosine deaminase inhibition nor the 8-SPT groups were blood pressures or heart rates significantly different; also recorded: neither the groups treated with pentostatin nor the groups treated with 8-SPT were blood pressures or heart rates significantly different”. The “Septic rats surviving to day 3” value in data set [2] is 2 of the 5 and 1 of 5. Also, the “Brain (cerebral) vascular resistance” value in data set [3] is “exception of changes in cerebral vascular resistance”. For the same compound, in data set [4] (4 hours, versus saline-treated septic group), the “Effect on serum TNF-α response to sepsis at 4 hours” value is on record as “not at 4 hours”. Further, the “Effect on serum TNF-α response to sepsis at 24 hours” value in data set [4] (24 hours, versus saline-treated septic group) is recorded as “amplified the response”. The “Serum TNF-α at 4 hours after sepsis induction” value in data set [4] (treated at time of sepsis induction, 4 hours) stood at 1167 ± 428 pg/mL. Also, the “Serum TNF-α at 24 hours after sepsis induction” value in data set [4] (treated at time of sepsis induction, 24 hours) amounted to 2479 ± 875 pg/mL. Moreover, in data set [5], the Capillary leakage entry was “exacerbation of capillary leakage” and the Small bowel hemorrhage entry is on record as “small bowel hemorrhaging was evident”. Besides, in data set [5] (untreated 2-3 ml), the “Volume of fluid in the peritoneal cavity” value lay within 3 to 5 mL.

As for `OCC1OC(n2cnc3c2N=CNCC3O)C(F)C1O` (stereo not shown) [2′-deoxy-2′-fluorocoformycin], the “Enzyme-inhibitory activity against adenosine deaminase” value in data set [6] is listed as “high enzyme-inhibitory activities”.

With `OC[C@H]1O[C@@H](n2cnc3c2N=CNC[C@@H]3O)[C@H](F)[C@@H]1O` [2′-deoxy-8-epi-2′-fluorocoformycin], in data set [6], the “Enzyme-inhibitory activity against adenosine deaminase” value is on record as “high enzyme-inhibitory activities”.

With `Cn1c(=O)c2[nH]c(-c3ccccc3)nc2n(C)c1=O` [8-PTH, 8-phenyltheophylline], in data set [3], the “Brain (cerebral) vascular resistance” value is listed as “caused increases”, the “Skeletal muscle vascular resistance” value is recorded as “caused increases” and the “Total hepato-splanchnic vascular resistance” value is given as “caused increases”.

On to `Oc1ncnc2[nH]ncc12` [Allopurinol], for which the Uric acid production result in data set [7] is “below detectable levels”.

The values above are taken from patent US20020086835A1, “Use of adenosine deaminase inhibitors to treat systemic inflammatory response syndrome” (priority 2000, published 2002).
